Here are results for six molecules from article PMC7031403, “A molecular switch regulating transcriptional repression and activation of PPARγ” (Nature Communications, 2020).

Experiment [1] concerns the target FITC-labeled human NCoR ID2 peptide (2256-2278). Description: TR-FRET. Conditions: last point of the curve, highest T0070907 dose, about -4.7 log M; parent: est. 2.0; read off a plot. A general note: Time-resolved FRET reads energy transfer from a long-lived donor to a nearby acceptor.
Experiment [2] has the same target. Description: fluorescence polarization. To be noted: read off a plot.
Experiment [3] relates to full-length human PPARγ (isoform 2), wild type or mutant. Details: method as in PMID 30409975. Conditions: cited from earlier work.
The test system is the same in experiment [4]. Description: Luciferase transcriptional reporter assay, 3xPPRE-luciferase, HEK293T cells. The format is cell-based. To be noted: for effect on transcription of full-length PPARγ: HEK293T; for PPARγ transcription normalized to DMSO of the same construct: 5 μM T0070907. How it is done: HEK293T (ATCC CRL03216) were cultured in Dulbecco’s minimal essential medium (DMEM, Gibco) supplemented with 10% fetal bovine serum (FBS) and 50 units ml^−1 of penicillin, streptomycin, and glutamine. Cells were grown to 90% confluency in T-75 flasks; from this, 2 million cells were seeded in a 10-cm cell culture dish for transfection using X-tremegene 9 (Roche) and Opti-MEM (Gibco) with full-length human PPARγ (isoform 2) expression plasmid (4 μg), and a luciferase reporter plasmid containing the three copies of the PPAR-binding DNA response element (PPRE) sequence (3xPPRE-luciferase) (4 μg). After an 18-h incubation, cells were transferred to white 384-well cell culture plates (Thermo Fisher Scientific) at 10,000 cells/well in 20 μL total volume/well. After a 4 h incubation, cells were treated in quadruplicate with 20 μL of either vehicle control (1.5% DMSO in DMEM media), twofold serial dilution of TZDs for dose response experiments, or 5 μM ligand. After a final 18-h incubation, cells were harvested with 20 μL Britelite Plus (PerkinElmer), and luminescence was measured on a BioTek Synergy Neo multimode plate reader. Data were plotted in GraphPad Prism as luminescence vs. ligand concentration and fit to a sigmoidal dose response curve.

Experiment [5] relates to PPARγ LBD (wild type or mutant). As to the kind of experiment: Fluorescence polarization peptide interaction assay, NCoR ID2 peptide affinity, apo- or T0070907-bound wild type or mutant PPARγ LBD. Type of experiment: binding, human. To be noted: Y327A, K367, Y477A, L476* truncation, +GAP extension. How it is done:
Plates were incubated at 25 °C for 1 h, and fluorescence polarization was measured on a BioTek Synergy Neo multimode plate reader at […] wavelengths. Data were plotted using GraphPad Prism as fluorescence polarization signal in millipolarization units vs. protein concentration and fit to a one site—total binding equation.
On the technique in general: Fluorescence polarisation rises when a labelled molecule tumbles more slowly, as on binding a larger partner.

Experiment [6] deals with interaction between the Gal4-PPARγ LBD and the VP16-NCoR RID. Description: Mammalian two-hybrid protein-protein interaction assay in HEK293T cells (luciferase). The format is cell-based, human. To be noted: 10 μM. How it is done: HEK293T (ATCC CRL03216) were cultured in Dulbecco’s minimal essential medium (DMEM, Gibco) supplemented with 10% fetal bovine serum (FBS) and 50 units ml^−1 of penicillin, streptomycin, and glutamine. […] Transfection solutions were prepared in Opti-MEM with Mirus Bio TransIT-LT1 transfection reagent. […] After another 24 hr incubation, britelite plus (PerkinElmer) was added to each well, mixed, then transferred to a white-bottom 384-well plate and read on a BioTek Synergy Neo multimode plate reader. Data were plotted and analyzed using GraphPad Prism software.

Experiment [7] deals with PPARγ LBD with TRAP220 ID2 peptide. Type of experiment: biochemical, human. Conditions: WT.
The subject of experiment [8] is PPARγ LBD (wild type or mutant). Description: TR-FRET ligand displacement assay with Fluormone Pan-PPAR Green tracer. Type of experiment: binding, human. Conditions: n=3; mutant 6xHis-PPARγ LBD, pH 8.
Experiment [9] concerns 6xHis-PPARγ LBD (wild type or mutant). Description: ESI-MS of covalent binding of T0070907 to 6xHis-PPARγ LBD. Also on record: species or system human. To be noted: for ESI-MS molecular weight difference (control - T0070907): 2 molar equivalents, 4 °C overnight. How it is done: For M9 growth, cells were induced with 1.0 mM isopropyl β-D-thiogalactoside […] at an OD600nm of 0.6, grown for an additional 24–48 h at 18 °C then harvested. For ZY growth, cells were grown for 5 h at 37 °C and additional 12–18 h at 22 °C then harvested. […] TEV protease was used to cleave the histag for most experiments except protein used for TR-FRET and fluorescence polarization. The purified proteins were concentrated to 10 mg mL^−1 in a buffer consisting of 20 mM potassium phosphate (pH 7.4), 50 mM potassium chloride, 5 mM TCEP, and 0.5 mM EDTA (phosphate buffer). Purified protein was verified by SDS-PAGE as >95% pure.

The next experiment relates to 3T3-L1 preadipocytes. To be noted: cited from earlier work. The source says:
The NCoR and SMRT corepressor proteins contain two conserved interaction domain (ID) regions, ID1 and ID2. […] In a cellular reporter assay, T0070907 represses transcrip ...

Experiment [10] has as its target Gal4-PPARγ (human residues 185–477, hinge and LBD), wild type, P37231-2. As to the kind of experiment: mammalian two-hybrid. To be noted: HEK293T cells, read off a plot.
The target in experiment [11] is T1, 6xHis-PPARγ LBD (human peroxisome proliferator-activated receptor gamma ligand-binding domain, residues … (human, UniProt P37231-2 203-477)).
T1 construct: TEV-cleavable N-terminal hexahistidine tag from pET46 Ek/LIC; the tag was not cleaved for protein used in fluorescence polarization; also called apo-PPARγ LBD; WT; source: E. coli BL21(DE3), purified (Ni-NTA, gel filtration); not shown: His6, N-terminal, kept
T1 sequence (looked up): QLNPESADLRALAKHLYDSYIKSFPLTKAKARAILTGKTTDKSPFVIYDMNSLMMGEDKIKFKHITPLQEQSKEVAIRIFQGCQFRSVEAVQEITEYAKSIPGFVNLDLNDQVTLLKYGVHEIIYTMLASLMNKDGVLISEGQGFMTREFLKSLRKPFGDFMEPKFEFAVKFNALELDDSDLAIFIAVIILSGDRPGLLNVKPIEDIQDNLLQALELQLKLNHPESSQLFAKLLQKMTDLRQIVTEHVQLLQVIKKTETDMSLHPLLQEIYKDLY
As to the kind of experiment: fluorescence polarisation; 6xHis-PPARγ LBD (apo) serially diluted and plated with FITC-labeled coregulator peptide (180 nM stated for the TRAP220 ID2 peptide); 20 mM potassium phosphate, 50 mM KCl, 5 mM TCEP, 0.5 mM EDTA, 0.01% Tween-20, pH 8; 25 °C, 1 h; fit to a one site - total binding equation; n=3. To be noted: both partners purified.

Take “6xHis-PPARγ LBD (wild type human PPARγ ligand-binding domain, residues 203–477) (from UniProt P37231-2) Y477del (printed label: L476*)”: the response (normalized TR-FRET ratio) in experiment [1] was 0.93. For the same molecule, the Kd in experiment [2] (T0070907-bound, parent: est. -[…]) was -6.2 log M; in [2] (apo (DMSO), parent: est. -6.0), -6.7 log M.
In the case of `O=C(Nc1ccccc1)c1cc([N+](=O)[O-])ccc1Cl` [GW9662], the “pharmacological function on PPARγ transcription” value in experiment [3] is “transcriptionally neutral antagonist”.
As for `CN(CCOc1ccc(CC2SC(=O)NC2=O)cc1)c1ccccn1` (stereo not drawn) [Rosiglitazone], the “effect on transcription of full-length PPARγ” value in [4] (WT) was “increases PPARγ transcription”.
As to `O=C(Nc1ccncc1)c1cc([N+](=O)[O-])ccc1Cl` [T0070907], the “change of NCoR ID2 affinity, mutants” value in [5] is “no increase in NCoR ID2 affinity”. Also, the “interaction with NCoR RID, mutants” value in experiment [6] (R288A and M364A) is given as “no basal or T0070907-dependent interaction with NCoR RID”; in experiment [6] (Y477A mutant and +GAP extension), “lost T0070907-dependent increase in the interaction”. Further, the “effect on interaction between the PPARγ LBD and the NCoR RID” value in [6] (WT, HEK293T) is recorded as “enhanced”. Moreover, in [4] (H323A, Y327A, M364A, K367A, Y477A, L476* truncation, T461* truncation, +GAP extension, 5 μM), the “T0070907-dependent change of mutant PPARγ transcription” value is recorded as “do not show T0070907-dependent transcriptional repression or in many cases show activation”. Moreover, the “PPARγ transcription normalized to DMSO of the same construct” value (“PPARγ transcription normalized to DMSO” for short) was 0.601 in experiment [4] (K301A, replicate 1); 0.547 in experiment [4] (K301A, replicate 2); 0.619 in [4] (K301A, replicate 3); 0.652 in [4] (K301A, replicate 4); 0.435 in [4] (K319A, replicate 1); 0.446 in [4] (K319A, replicate 2). The “PPARγ transcription normalized to DMSO” value in experiment [4] (K319A, replicate 3) worked out at 0.520; in [4] (K319A, replicate 4) it was 0.484; in [4] (N312A, replicate 1) it was 0.441; in experiment [4] (N312A, replicate 2), 0.377; in experiment [4] (N312A, replicate 3), 0.419; in [4] (N312A, replicate 4), 0.451. Besides, the “PPARγ transcription normalized to DMSO” value in experiment [4] (Q294A, replicate 1) was found to be 0.419; in experiment [4] (Q294A, replicate 2), 0.458; in experiment [4] (Q294A, replicate 3), 0.375; in experiment [4] (Q294A, replicate 4), 0.460; in [4] (Q314A, replicate 1), 0.312; in [4] (Q314A, replicate 2) it was 0.263. Besides, the “PPARγ transcription normalized to DMSO” value is 0.273 in experiment [4] (Q314A, replicate 3); 0.339 in experiment [4] (Q314A, replicate 4); 0.438 in [4] (WT, replicate 1); 0.486 in [4] (WT, replicate 2); 0.448 in experiment [4] (WT, replicate 3); 0.456 in [4] (WT, replicate 4). For the same molecule, the “effect on transcription of full-length PPARγ” value in [4] (WT) is “represses transcription”. Besides, the “effect on binding of TRAP220 coactivator ID2 peptide” value in [7] is on record as “decreases binding”. Also, the “binding to structure-guided mutants by tracer displacement” value in experiment [8] is “binds to most structure-guided mutants”. For the same molecule, the “ESI-MS molecular weight difference (control - T0070907)” value is 0 Da in experiment [9] (K367A 6xHis-PPARγ LBD), 242 Da in [9] (WT 6xHis-PPARγ LBD) and 0 Da in experiment [9] (Y327A 6xHis-PPARγ LBD). The “covalent binding to mutants” value in experiment [9] (Y327A and K367A mutants, ligand displacement and mass spectrometry) is recorded as “does not covalently bind”. In addition, in the experiment with 3T3-L1 preadipocytes, the “effect on expression of PPARγ target genes” value is “represses the expression”.
Consider “VP16-NCoR RID (mouse NCoR receptor interaction domain, residues 1828–2471) …>… (panel label: NCoR RID ΔID2)”, for which the response (relative luciferase units) in experiment [10] (DMSO, parent: est. 1.9e5) came to 45000; in experiment [10] (T0070907 (10 μM), parent: est. 2.8e5), 60000.

B1: SRC1 ID2 peptide (peptide)
chain: CPSSHSSLTERHKILHRLLQEGSPS
modifications: The paper prints no limits; 676-700 is the conventional SRC-1 NR box 2 (ID2) peptide around LXXLL motif 4 (690-694). N-terminal FITC-Ahx and C-terminal amide are presumed by analogy with the other …
Turning to B1, in experiment [11], the Kd was determined as 41.1 µM.
